Numbered stars: 1 amine (or outer) side, 2 acyl side, 3 side chain; on linkers, the order of the positions; unused ones are H or OH. Square brackets hold non-standard residues; d marks the D form. Ends that are not written are not given here. Peptide text beside a SMILES is read from it. * marks the point of attachment. Butyryl(4-indol-3-yl) = O=C(CCCc1c[nH]c2ccccc12)*; X11 = O=C(CNC(=S)[C@H](Cc1ccccc1)N[*:1])[*:2]; X1 = O=C([C@H](Cc1ccc2ccccc2n1)N[*:1])[*:2]; Phe(3-Cl) = N[C@@H](Cc1cccc(Cl)c1)C(=O)O; 2Nal = N[C@@H](Cc1ccc2ccccc2c1)C(=O)O; Arg(Me) = CNC(=N)NCCC[C@H](N)C(=O)O; 4Pal = N[C@@H](Cc1ccncc1)C(=O)O; azaGly = NNC(=O)O
target: T1, hOT7T175 (Homo sapiens, UniProt Q969F8, L364H); experiment: hOT7T175 receptor binding activity: binding inhibition of Cy-5-labeled metastin (40-54) on hOT7T175-expressed CHO cells; set-up: expressed in transfected cells; host or cells: CHO cells; conditions: not given
Experimental: Assay for hOT7T175 Receptor Binding Activity
h0T7T175-Expressed CHO cells were cultured in MEM-cc medium (nucleic acid-free) containing 10% dialyzed serum. The medium was removed and the adherent cells were washed with PBS. Then, PBS containing 5 mM EDTA was added and the cells were scraped from a flask with a cell scraper. […] To each well of a 96-Well Black Clear Bottom Plate (Applied Biosystems, Inc.), 10 μL of assay buffer containing 1% dimethylsulfoxide was added to examine total binding, 10 μL of 10 μM non-labeled peptide (having the same amino acid sequence as that of the labeled one) solution diluted with assay buffer to examine non-specific binding, and 10 μL of a test compound diluted with assay buffer to examine the binding inhibition activity of the test compound, respectively. Furthermore, 90 μL each of the cell suspension was dispensed to each well. […] The specific binding is a value obtained by subtracting the non-specific binding from the total binding.

T1 sequence (Q969F8 whole entry L364H): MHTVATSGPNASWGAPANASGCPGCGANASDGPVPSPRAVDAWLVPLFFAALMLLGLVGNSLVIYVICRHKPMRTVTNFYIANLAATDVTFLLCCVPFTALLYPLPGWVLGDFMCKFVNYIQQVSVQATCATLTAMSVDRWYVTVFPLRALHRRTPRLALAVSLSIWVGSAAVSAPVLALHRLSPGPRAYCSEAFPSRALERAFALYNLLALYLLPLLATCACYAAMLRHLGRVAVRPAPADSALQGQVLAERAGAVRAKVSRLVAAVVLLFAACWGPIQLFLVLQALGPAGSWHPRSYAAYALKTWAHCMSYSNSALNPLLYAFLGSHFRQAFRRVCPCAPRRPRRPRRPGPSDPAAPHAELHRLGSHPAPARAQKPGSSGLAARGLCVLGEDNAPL

Row | Compound | IC50 [nM]
1 | CC(C)C[C@H](NC(=O)CNC(=O)[C@H](Cc1ccc(O)cc1)NC(=O)[C@H](CO)NC(=O)[C@H](CC(N)=O)NC(=O)[C@H](Cc1c[nH]c2ccccc12)NC(=O)[C@H](CC(N)=O)NC(=O)[C@@H](N)Cc1ccc(O)cc1)C(=O)N[C@@H](CCCNC(=N)N)C(=O)N[C@@H](Cc1ccccc1)C(N)=O [Compound No. 150] (H-YNWNSYGLRF-NH2) | 320
2 | CC(C)C[C@H](NC(=O)CNC(=O)[C@H](Cc1ccccc1)NC(=O)[C@H](CO)NC(=O)[C@H](CC(N)=O)NC(=O)[C@H](Cc1c[nH]c2ccccc12)NC(=O)[C@H](CC(N)=O)NC(=O)[C@@H](N)Cc1ccc(O)cc1)C(=O)N[C@@H](CCCCN)C(=O)N[C@@H](Cc1ccccc1)C(N)=O [Compound No. 44] (H-YNWNSFGLKF-NH2) | 190

target: T1, hOT7T175; experiment: Intracellular Ca ion level-increasing activity using FLIPR in hOT7T175/CHO; assay type: cell-based; set-up: expressed in transfected cells; host or cells: CHO/dhfr- cells, obtained from ATCC; conditions: relative, Metastin (1-54) = 1

Row | Compound | Specific Activity (intracellular Ca ion level-increasing activity)
3 | D-Tyr-Asn-Trp-Gln-Ser-Phe-Gly-Leu-Arg(Me)-Phe-NH2 ([dY]NWQSFGL[Arg(Me)]F-NH2; N-terminus assumed; SMILES CNC(=N)NCCC[C@H](NC(=O)[C@H](CC(C)C)NC(=O)CNC(=O)[C@H](Cc1ccccc1)NC(=O)[C@H](CO)NC(=O)[C@H](CCC(N)=O)NC(=O)[C@H](Cc1c[nH]c2ccccc12)NC(=O)[C@H](CC(N)=O)NC(=O)[C@H](N)Cc1ccc(O)cc1)C(=O)N[C@@H](Cc1ccccc1)C(N)=O) [Compound No. 209] | ½
4 | CNC(=N)NCCC[C@H](NC(=O)[C@H](CC(C)C)NC(=O)NNC(=O)[C@H](Cc1ccccc1)NC(=O)[C@H](CO)NC(=O)[C@H](CC(N)=O)NC(=O)[C@H](Cc1cccc(Cl)c1)NC(=O)[C@H](CC(N)=O)NC(=O)[C@H](N)Cc1ccc(O)cc1)C(=O)N[C@@H](Cc1ccccc1)C(N)=O [Compound No. 248, D-Tyr-Asn-Phe(3Cl)-Asn-Ser-Phe-AzaGly-Leu-Arg(Me)-Phe-NH2] (H-[dY]N[Phe(3-Cl)]NSF[azaGly]L[Arg(Me)]F-NH2) | 2
5 | CNC(=N)NCCC[C@H](NC(=O)[C@H](CC(C)C)NC(=O)NNC(=O)[C@H](Cc1ccccc1)NC(=O)[C@H](CO)NC(=O)[C@H](CC(N)=O)NC(=O)[C@H](Cc1ccccc1)NC(=O)[C@@H](CC(N)=O)NC(=O)[C@H](N)Cc1ccc(O)cc1)C(=O)N[C@@H](Cc1ccccc1)C(N)=O [Compound No. 257, D-Tyr-D-Asn-Phe-Asn-Ser-Phe-AzaGly-Leu-Arg(Me)-Phe-NH2] (H-[dY][dN]FNSF[azaGly]L[Arg(Me)]F-NH2) | 3
6 | D-Tyr-Asn-Trp-Ser-Ser-Phe-Gly-Leu-Arg(Me)-Phe-NH2 ([dY]NWSSFGL[Arg(Me)]F-NH2; N-terminus assumed; SMILES CNC(=N)NCCC[C@H](NC(=O)[C@H](CC(C)C)NC(=O)CNC(=O)[C@H](Cc1ccccc1)NC(=O)[C@H](CO)NC(=O)[C@H](CO)NC(=O)[C@H](Cc1c[nH]c2ccccc12)NC(=O)[C@H](CC(N)=O)NC(=O)[C@H](N)Cc1ccc(O)cc1)C(=O)N[C@@H](Cc1ccccc1)C(N)=O) [Compound No. 207] | ½
7 | Dap-D-Tyr-Asn-Trp-Asn-Ser-Phe-Gly-Leu-Arg(Me)-Phe-NH2 [Compound No. 387] | 1
8 | CC(C)C[C@H](NC(=O)CNC(=S)[C@H](Cc1ccccc1)NC(=O)[C@H](CO)NC(=O)[C@H](CC(N)=O)NC(=O)[C@H](Cc1c[nH]c2ccccc12)NC(=O)[C@H](CC(N)=O)NC(=O)[C@@H](N)Cc1ccc(O)cc1)C(=O)N[C@@H](CCCNC(=N)N)C(=O)N[C@@H](Cc1ccccc1)C(N)=O [Compound No. 166, Tyr-Asn-Trp-Asn-Ser-Phe Ψ(CSNH)Gly-Leu-Arg-Phe-NH2] (H-YNWNS[X11]LRF-NH2) | 5
9 | CC(C)C[C@H](NC(=O)CNC(=O)[C@H](Cc1ccccc1)NC(=O)[C@H](CC(C)C)NC(=O)[C@H](CC(N)=O)NC(=O)[C@H](Cc1c[nH]c2ccccc12)NC(=O)[C@H](CC(N)=O)NC(=O)[C@@H](N)Cc1ccc(O)cc1)C(=O)N[C@@H](CCCNC(=N)N)C(=O)N[C@@H](Cc1ccccc1)C(N)=O [Compound No. 24] (H-YNWNLFGLRF-NH2) | 1
10 | CNC(=N)NCCC[C@H](NC(=O)[C@H](CC(C)C)NC(=O)CNC(=O)[C@H](Cc1ccccc1)NC(=O)[C@H](CO)NC(=O)[C@H](CC(N)=O)NC(=O)[C@H](Cc1c[nH]c2ccccc12)NC(=O)[C@@H](CC(N)=O)NC(=O)[C@H](N)Cc1ccc(O)cc1)C(=O)N[C@@H](Cc1ccccc1)C(N)=O [Compound No. 230] | 10
11 | CNC(=N)NCCC[C@H](NC(=O)[C@H](CC(C)C)NC(=O)NNC(=O)[C@H](Cc1ccccc1)NC(=O)[C@H](CO)NC(=O)[C@H](CC(N)=O)NC(=O)[C@H](Cc1ccccc1)NC(=O)[C@H](N)Cc1ccc(O)cc1)C(=O)N[C@@H](Cc1ccccc1)C(N)=O [Compound No. 254, D-Tyr-Phe-Asn-Ser-Phe-AzaGly-Leu-Arg(Me)-Phe-NH2] (H-[dY]FNSF[azaGly]L[Arg(Me)]F-NH2) | 1
12 | CNC(=N)NCCC[C@H](NC(=O)[C@H](CC(C)C)NC(=O)CNC(=O)[C@H](Cc1ccccc1)NC(=O)[C@H](CO)NC(=O)[C@H](CC(N)=O)NC(=O)[C@H](Cc1c[nH]c2ccccc12)NC(=O)[C@@H](NC(=O)[C@H](N)Cc1ccc(O)cc1)[C@@H](C)O)C(=O)N[C@@H](Cc1ccccc1)C(N)=O [Compound No. 215] (H-[dY]TWNSFGL[Arg(Me)]F-NH2; N-terminus assumed) | 10
13 | CNC(=N)NCCC[C@H](NC(=O)[C@H](CC(C)C)NC(=O)CNC(=O)[C@H](Cc1ccccc1)NC(=O)[C@H](CO)NC(=O)[C@H](CC(N)=O)NC(=O)[C@H](Cc1c[nH]c2ccccc12)NC(=O)[C@H](CCC(N)=O)NC(=O)[C@H](N)Cc1ccc(O)cc1)C(=O)N[C@@H](Cc1ccccc1)C(N)=O [Compound No. 214] (H-[dY]QWNSFGL[Arg(Me)]F-NH2) | 10
14 | CC(C)C[C@H](NC(=O)CNC(=O)[C@H](Cc1ccccc1)NC(=O)[C@H](CO)NC(=O)[C@H](CC(N)=O)NC(=O)[C@H](Cc1c[nH]c2ccccc12)NC(=O)[C@H](CC(N)=O)NC(=O)[C@@H](N)Cc1ccc(O)cc1)C(=O)N[C@@H](CCCNC(=N)N)C(=O)N[C@@H](Cc1ccc2ccccc2n1)C(N)=O [Compound No. 201] (H-YNWNSFGLR[X1]-NH2) | 1
15 | CCCNC(=N)NCCC[C@H](NC(=O)[C@H](CC(C)C)NC(=O)CNC(=O)[C@H](Cc1ccccc1)NC(=O)[C@H](CO)NC(=O)[C@H](CC(N)=O)NC(=O)[C@H](Cc1c[nH]c2ccccc12)NC(=O)[C@H](CC(N)=O)NC(=O)[C@H](N)Cc1ccc(O)cc1)C(=O)N[C@@H](Cc1ccccc1)C(N)=O [Compound No. 193] | 001
16 | CNC(=N)NCCC[C@H](NC(=O)[C@H](CC(C)C)NC(=O)NNC(=O)[C@H](Cc1ccccc1)NC(=O)[C@H](CO)NC(=O)[C@H](CC(N)=O)NC(=O)CCCc1c[nH]c2ccccc12)C(=O)N[C@@H](Cc1ccccc1)C(N)=O [Compound No. 267, 4-(3-Indolyl)butyryl-Asn-Ser-Phe-AzaGly-Leu-Arg(Me)-Phe-NH2] ({Butyryl(4-indol-3-yl)}-NSF[azaGly]L[Arg(Me)]F-NH2) | 2
17 | CNC(=N)NCCC[C@H](NC(=O)[C@H](CC(C)C)NC(=O)CNC(=S)[C@H](Cc1ccccc1)NC(=O)[C@H](CO)NC(=O)[C@H](CC(N)=O)NC(=O)[C@H](Cc1c[nH]c2ccccc12)NC(=O)[C@H](CC(N)=O)NC(=O)[C@H](N)Cc1ccc(O)cc1)C(=O)N[C@@H](Cc1ccccc1)C(N)=O [Compound No. 296, D-Tyr-Asn-Trp-Asn-Ser-PheΨ(CSNH)Gly-Leu-Arg(Me)-Phe-NH2] (H-[dY]NWNS[X11]L[Arg(Me)]F-NH2) | 3
18 | CC(C)C[C@H](NC(=O)CNC(=O)[C@H](Cc1ccccc1)NC(=O)[C@H](CO)NC(=O)[C@H](CC(N)=O)NC(=O)[C@H](Cc1c[nH]c2ccccc12)NC(=O)[C@H](CC(N)=O)NC(=O)[C@@H](N)Cc1ccc(O)cc1)C(=O)N[C@@H](CCCNC(=N)N)C(=O)N[C@@H](Cc1ccncc1)C(N)=O [Compound No. 17] (H-YNWNSFGLR[4Pal]-NH2) | 5
19 | CNC(=N)NCCC[C@H](NC(=O)[C@H](CC(C)C)NC(=O)NNC(=O)[C@H](Cc1ccccc1)NC(=O)[C@H](CO)NC(=O)[C@H](CC(N)=O)NC(=O)[C@H](Cc1c[nH]c2ccccc12)NC(=O)[C@H](CC(N)=O)NC(=O)[C@H](N)Cc1ccc(O)cc1)C(=O)N[C@@H](Cc1ccc(F)cc1)C(N)=O [Compound No. 318, D-Tyr-Asn-Trp-Asn-Ser-Phe-AzaGly-Leu-Arg(Me)-Phe(4F)-NH2] | 5
20 | CNC(=N)NCCC[C@H](NC(=O)[C@H](CC(C)C)NC(=O)NNC(=O)[C@H](Cc1ccccc1)NC(=O)[C@H](CO)NC(=O)[C@H](CC(N)=O)NC(=O)[C@H](Cc1ccc2ccccc2c1)NC(=O)[C@H](CC(N)=O)NC(=O)[C@H](N)Cc1ccc(O)cc1)C(=O)N[C@@H](Cc1ccccc1)C(N)=O [Compound No. 246, D-Tyr-Asn-Nal(2)-Asn-Ser-Phe-AzaGly-Leu-Arg(Me)-Phe-NH2] (H-[dY]N[2Nal]NSF[azaGly]L[Arg(Me)]F-NH2) | 2

Reference: patent publication US8361968B2 (Takeda Pharmaceutical Company Limited, priority 2002, dated 2013)
